Assay results reported in patent publication US9920030B2 (priority 2006, dated 2018).
Like-named read-outs stand apart in the source and are kept apart here.

Tests used:
Type in all cases: in vivo
[1] = system: Phytophthora infestans (the causal agent of tomato late blight); experiment: whole plant or invertebrate; conditions: for pest or weed control at 40 ppm: Phytophthora infestans, 144 h, read-out: Percent Disease Control, Test B
[2] = system: Plasmopara vilicola (the causal agent of grape downy mildew); experiment: Test A: grape downy mildew, test suspension sprayed on grape seedlings after inoculation, visual disease rating; conditions: for pest or weed control at 40 ppm: Plasmopara, 144 h, read-out: Percent Disease Control, Test A
From the text: General protocol for preparing test suspensions for Test A-C: The test compounds were first dissolved in acetone in an amount equal to 3% of the final volume and then suspended at the desired concentration (in ppm) in acetone and purified water (50/50 mix by volume) containing 250 ppm of the surfactant Trem® 014 (polyhydric alcohol esters). The resulting test suspensions were then used in Tests A-C. Spraying a 200 ppm test suspension to the point of run-off on the test plants was equivalent to a rate of 500 g/ha.
Grape seedlings were inoculated with a spore suspension of Plasmopara vilicola (the causal agent of grape downy mildew) and incubated in a saturated atmosphere at 20° C. for 24 h. After a short drying period, the test suspension was sprayed to the point of run-off on the grape seedlings, which were then moved to a growth chamber at 20° C. for 5 days, after which time the grape seedling were placed back into a saturated atmosphere at 20° C. for 24 h. Upon removal, visual disease ratings were made.
Results for Tests A-C are given in Table A. In the table, a rating of 100 indicates 100% disease control and a rating of 0 indicates no disease control (relative to the controls). A dash (-) indicates no test results.

[3] = system: Phytophthora infestans (the causal agent of tomato late blight); experiment: whole plant or invertebrate; conditions: for pest or weed control at 40 ppm: Phytophthora infestans, 96 h, read-out: Percent Disease Control, Test C
[4] = compounds without asterisk (application rate not given), 100 = 100% disease control, 0 = no control relative to the controls

SMILES	Percent Disease Control, Test B [1, 4]	Percent Disease Control, Test A [2, 4]	Percent Disease Control, Test B ([1]; * tested at 40 ppm)	Percent Disease Control, Test A ([2]; * tested at 40 ppm)	Percent Disease Control, Test C ([3]; * tested at 40 ppm)	further results
Cc1cc(C(F)(F)F)nn1CC(=O)N1CCC(c2nc(-c3ccccc3)cs2)CC1 [Compound 62]	73%	73%				Percent Disease Control, Test C [3, 4]: 26%
Cc1cc(C(F)(F)F)nn1CC(=O)N1CCC(c2nc(C3=NO[C@@H](c4c(Cl)cccc4Cl)C3)cs2)CC1 (racemic) [Compound 135, 1-[4-[4-[(5R)-5-(2,6-dichlorophenyl)-4,5-dihydro-3-isoxazolyl]-2-thiazolyl]-1-piperidinyl]-2-[5-methyl-3-(trifluoromethyl)-1H-pyrazol-1-yl]ethanone]						pest or weed control at 40 ppm [1]: 100%; pest or weed control at 40 ppm ([2]; * tested at 40 ppm): 100%; pest or weed control at 40 ppm [3]: 99%
Cc1cc(C(F)(F)F)nn1CC(=O)N1CCC(c2nc(C3=NOC4(CCCC4)C3)cs2)CC1 [Compound 67]			100%	100%	99%	
Cc1cc(C(F)(F)F)nn1CC(=O)N1CCC(c2nc(-c3ccc(Oc4ccccc4)cc3)cs2)CC1 [Compound 72]	100%	72%				Percent Disease Control, Test C [3, 4]: 52%
CCOC(=O)c1cc(C)nn1CC(=O)N1CCC(c2nc(C3=NOC(c4ccccc4)C3)cs2)CC1 (stereo not shown) [Compound 238]			100%	100%	100%	
Cc1cc(C(F)(F)F)nn1CC(=O)N1CCC(c2nc(-c3ccccc3Cl)cs2)CC1 [Compound 121]	47%	83%				Percent Disease Control, Test C [3, 4]: 0%
Cc1cc(C(F)(F)F)nn1CC(=O)N1CCC(c2nc(C3=NOC(c4ccc(C(C)(C)C)cc4)C3)cs2)CC1 (stereo not shown) [Compound 91]			100%	99%	91%	
Cc1cc(C)c([C@H]2CC(c3csc(C4CCN(C(=O)Cn5nc(C(F)(F)F)cc5C)CC4)n3)=NO2)c(C)c1 [Compound 179, 1-[4-[4-[(5R)-4,5-dihydro-5-(2,4,6-trimethylphenyl)-3-isoxazolyl]-2-thiazolyl]-1-piperidinyl]-2-[5-methyl-3-(trifluoromethyl)-1H-pyrazol-1-yl]ethanone]						pest or weed control at 40 ppm [1]: 100%; pest or weed control at 40 ppm ([2]; * tested at 40 ppm): 99%; pest or weed control at 40 ppm [3]: 98%
Cc1cc(C(F)(F)F)nn1CC(=O)N1CCC(c2nc(C3=NOC4(CCNCC4)C3)cs2)CC1 [Compound 195]	92%	48%				Percent Disease Control, Test C [3, 4]: 80%
Cc1cc(C(F)(F)F)nn1CC(=O)N1CCC(c2nc(C3=NOC4(COC(c5ccccc5)OC4)C3)cs2)CC1 (single isomer, unassigned) [Compound 175]	100%	68%				Percent Disease Control, Test C [3, 4]: 33%
Cc1cccc(-c2csc(C3CCN(C(=O)Cn4nc(C(F)(F)F)cc4C)CC3)n2)c1 [Compound 149]	97%	99%				
Cc1cc(C(F)(F)F)nn1CC(=O)N1CCC(c2nc(-c3nc(-c4ccccc4)no3)cs2)CC1 [Compound 68]	95%	96%				Percent Disease Control, Test C [3, 4]: 88%
Cc1cc(C(F)(F)F)nn1CC(=O)N1CCC(c2nc(C3=NOC4(C)C(=O)c5ccccc5C(O)=C34)cs2)CC1 (stereo not shown) [Compound 218]			63%	73%	47%	
Cc1cc(C(F)(F)F)nn1CC(=O)N1CCC(c2nc(C3=NCC(c4ccccc4)N3)cs2)CC1 (stereo not shown) [Compound 92]			33%	13%	9%	
Cc1cc(C(F)(F)F)nn1CC(=O)N1CCC(c2nc(-c3cc(-c4ccccc4F)on3)cs2)CC1 [Compound 59]			100%	97%	91%	
CC(=O)N1N=C(c2csc(C3CCN(C(=O)Cn4nc(C(F)(F)F)cc4C)CC3)n2)CC1c1ccccc1 (stereo not shown) [Compound 197]			100%	89%	90%	
Cc1cc(C(F)(F)F)nn1CC(=O)N1CCC(c2nc(C3=NOC4(CCN(c5ccccc5)CC4)C3)cs2)CC1 [Compound 212]			100%	98%	99%	
COC(=O)c1ccc(C2CC(c3csc(C4CCN(C(=O)Cn5nc(C(F)(F)F)cc5C)CC4)n3)=NO2)cc1 (stereo not shown) [Compound 134]			100%	90%	66%	
Cc1cc(C(F)(F)F)nn1CC(=O)N1CCC(c2nc(C3=NOC(C)(c4csc5ccccc45)C3)cs2)CC1 (stereo not shown) [Compound 147]			100%	100%	95%	
Cc1cc(C(F)(F)F)nn1CC(=O)N1CCC(c2nc(C3=NOC4(CCC4)C3)cs2)CC1 [Compound 193]			100%	100%	99%	
Cc1cc(C(F)(F)F)nn1CC(=O)N1CCC(c2nc(C3=NOC4(CCCc5ccccc54)C3)cs2)CC1 (stereo not shown) [Compound 37, 1-[4-[4-(3′,4′-dihydrospiro[isoxazole-5(4H), 1′,(2′H)-naphthalen]-3-yl)-2-thiazolyl]-1-piperidinyl]-2-[5-methyl-3-(trifluoromethyl)-1H-pyrazol-1-yl]ethanone]			100%	100%	99%	
Cc1cc(C(F)(F)F)nn1CC(=O)N1CCC(c2nc(C3=NOC(c4ccc(O)c(O)c4)C3)cs2)CC1 (stereo not shown) [Compound 125]	53%	31%				Percent Disease Control, Test C [3, 4]: 0%
Cc1cc(C(F)(F)F)nn1CC(=O)N1CCC(c2nc(C3=NOC(c4ccccn4)C3)cs2)CC1 (stereo not shown) [Compound 98, 1-[4-[4-(4,5-dihydro-5-(2-pyridinyl)-3-isoxazolyl)-2-thiazolyl]-1-piperidinyl]-2-[5-methyl-3-(trifluoromethyl)-1H-pyrazol-1-yl]ethanone]						pest or weed control at 40 ppm [1]: 100%; pest or weed control at 40 ppm ([2]; * tested at 40 ppm): 77%; pest or weed control at 40 ppm [3]: 99%
Cc1cc(C(F)(F)F)nn1CC(=O)N1CCC(n2cc(-c3cccc(-c4ccccc4)c3)cn2)CC1 [Compound 33]	9%	15%				Percent Disease Control, Test C [3, 4]: 0%
COc1ccccc1-c1csc(C2CCN(C(=O)Cn3nc(C(F)(F)F)cc3C)CC2)n1 [Compound 153]	0%	73%				
Cc1ccc(-c2csc(C3CCN(C(=O)Cn4nc(C(F)(F)F)cc4C)CC3)n2)cc1 [Compound 151]	99%	100%				
COc1ccc(-c2csc(C3CCN(C(=O)Cn4nc(C(F)(F)F)cc4C)CC3)n2)cc1 [Compound 150]	100%	99%				
COc1cccc(-c2csc(C3CCN(C(=O)Cn4nc(C(F)(F)F)cc4C)CC3)n2)c1 [Compound 152]	89%	91%				
